According to paper PMC4426631, “Insect antimicrobial peptides show potentiating functional interactions against Gram-negative bacteria” (Proceedings of the Royal Society B: Biological Sciences, 2015):
Cf = 5(6)-carboxyfluorescein

Experiments:
[1] = test system: E. coli strain JM83; test: E. coli permeabilization assay (β-galactosidase leakage); assay type: cell-based
Experimental: The membrane permeabilizing activities of AMPs were determined using E. coli strain JM83 on the basis of β-galactosidase activity leaking from the cytoplasm, as described in detail in the electronic supplementary material. Living bacteria incubated with medium only were used as a negative control and bacteria killed by treatment with 5 µM synthetic cecropin B (Sigma-Aldrich) were used as a positive control (100% permeabilization). Before setting the perforation level of the positive control to 100%, the perforation value obtained for the negative control was subtracted from all other measurements. All assays were carried out three times, each time in triplicate. The results were presented as means ± s.d. (n = 3) based on statistical analysis using Student's t-test. […]
i) Peptide synthesis and modification.
The peptide sequences shown in Tabl es S1 an d S4 were selected according to their repo rted structural and functional properties, synthesized and purified to >95%. […]
The membran e p ermeabilizing activities of AMPs were determined using E. coli strain JM83 on the basis of β-gal actosidase activit y leakin g from the c ytoplasm. […] The samples were incubated at 37°C for 90 min and the absorbance was measured at 405 nm , which is proportional to the amount of released β-gal act osidase. […]

[2] = test system: E. coli strain D22; design: method as in PMID 9219367; conditions: E. coli strain D22, which has a defective cell envelope; ref [46]; cited from earlier work
Description: In the original report, the authors used E. coli strain D22, which has a defective cell envelope.

Substance: abaecin: proline-rich peptide abaecin, species version not specified at the place (Cf-FVPYNPPRPGQSKPFPSFPGHGPFNPKIQWPYPLPNPGH-NH2)
- perforation of the bacterial envelope, abaecin alone ([1]; 20 µM abaecin, pH 6.8 phosphate buffer, 45 min, 37°C, 405 nm, relative to 5 µM cecropin B = 100%, n = 3): approximately 4.8%
- increase in membrane permeability, in words ([1]; peptide alone): only marginally increased
- antibacterial activity [2]: antibacterial activity was demonstrated
